In patent publication US9932584B2, “Interfering RNA delivery system and uses thereof” (Arrowhead Pharmaceuticals Inc., priority 2012, dated 2018):

Test system: PPIB mRNA
Experiment: siRNA delivery with CPP-10H peptides, PPIB mRNA by Taqman qRT-PCR
Assay type: cell-based
Conditions: GTM-3 cells; for suppression of PPIB mRNA expression: PPIB siRNA complexed with peptide 20:1 peptide:siRNA, 1 hour, 48 hour post-transfection, normalized to β-actin mRNA, relative to non-treated cells
Description: The ability of 10 histidine residues (10H) to enhance endosomal release of siRNAs delivered using certain cell penetrating peptides (CPPs) was examined. […] (SEQ ID NO: 12). Peptidyl-prolyl cis-trans isomerase B (PPIB) siRNA and Non-Targeting siRNA #2 (NTC2) (Thermo Fisher Scientific, Dharmacon Products, Lafayette, Colo.) were complexed with TAT-10H, CTP-10H, and YM3-10H peptides (Abgent, Inc., San Diego, Calif.) at a 20:1 peptide: siRNA molar ratio for 30 minutes at room temperature, and applied to GTM-3 cells (Pang, I. H., et al., 1994 Curr Eye Res. 13:51-63) at a final siRNA concentration of 100-800 nM for 1 hour. PPIB mRNA and β-actin mRNA levels were determined by Taqman qRT-PCR assay (Applied Biosystems, Austin, Tex.) at 48 hour post-transfection (FIG. 1). Data were normalized to β-actin mRNA, and expressed relative to PPIB mRNA level in non-treated cells.

“CHHHHHGGRRARRRRRRHHGHHC (CHHHHHGGRRARRRRRRHHHHHC) [CTP-10H]” was tested, and the “non-specific silencing of PPIB mRNA expression with NTC2 control” value (NTC2 non-targeting siRNA delivered with peptide, 800 nM siRNA, possibly due to a cytotoxic effect) was “significant silencing”, the “suppression of PPIB mRNA expression” value (100 nM siRNA) was about 80% and the “suppression of PPIB mRNA expression” value (200 nM siRNA) was at least 90%. For the same sequence, the “suppression of PPIB mRNA expression” value (800 nM siRNA) was at least 90%.
